Data as given in patent US20050090522A1 (priority 2001, published 2005).
Read-outs that look alike come from different tables or passages of the source.

How the values were obtained:
[1] = tested on: HIV-1; experiment: HIV-1 single-round infectious luciferase reporter virus (pseudotype) assay in HeLa CD4 CCR5 cells; format: cell-based
Outline: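 HeLa CD4 CCR5 cells (5×10^4/well, DMEM + 10% FBS) were treated with compound (final <10 μM) and infected with single-round luciferase reporter virus made in 293 cells, at MOI ~0.01. Luciferase was read 72 h post infection. EC50 came from 10-concentration percent-inhibition curves fitted to a four-parameter logistic model.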

[2] = tested on: HeLa cells; experiment: Cytotoxicity assay in HeLa cells (MTT dye reduction, CC50)
Procedure: • Virus production—Human embryonic Kidney cell line, 293, propagated in Dulbecco's Modified Eagle Medium (Life Technologies, Gaithersburg, Md.) containing 10% fetal Bovine serum (FBS, Sigma, St. Louis, Mo.). • Virus infection—Human epithelial cell line, HeLa, expressing the HIV-1 receptors CD4 and CCR^5 was propagated in Dulbecco's Modified Eagle Medium (Life Technologies, Gaithersburg, Md.) containing 10% fetal Bovine serum (FBS, Sigma, St. Louis, Mo.) and supplemented with 0.2 mg/mL Geneticin (Life Technologies, Gaithersburg, Md.) and 0.4 mg/mL Zeocin (Invitrogen, Carlsbad, Calif.). […] Transfections were performed using lipofectAMINE PLUS reagent as described by the manufacturer (Life Technologies, Gaithersburg, Md.). Experiment • 1. Compound was added to HeLa CD4 CCR5 cells plated in 96 well plates at a cell density of 5×10^4 cells per well in 100 μl Dulbecco's Modified Eagle Medium containing 10% fetal Bovine serum at a concentration of […]. • 2. 100 μl of single-round infectious reporter virus in Dulbecco's Modified Eagle Medium was then added to the plated cells and compound at an approximate multiplicity of infection (MOI) of 0.01, resulting in a final volume of 200 μl per well and a final compound concentration of <10 μM. • 3. Samples were harvested 72 h after infection. • 4. Viral infection was monitored by measuring luciferase expression from viral DNA in the infected cells using a luciferase reporter gene assay kit (Roche Molecular Biochemicals, Indianapolis, Ind.). Infected cell supernatants were removed and 50 μl of Dulbecco's Modified Eagle Medium (without phenol red) and 50 μl of luciferase assay reagent reconstituted as described by the manufacturer (Roche Molecular Biochemicals, Indianapolis, Ind.) was added per well. Luciferase activity was then quantified by measuring luminescence using a Wallac microbeta scintillation counter. • 5. […] An EC50 provides a method for comparing the antiviral potency of the compounds of this invention. The effective concentration for fifty percent inhibition (EC50) was calculated with the Microsoft Excel Xlfit curve fitting software. For each compound, curves were generated from percent inhibition calculated at 10 different concentrations by using a four paramenter logistic model (model 205). Table 1 is the key for the data in Tables 2-4. Cytoxicity assays were conducted with the same HeLa using methodology well known in the art.
(§1) For accuracy, the determined measure of viral inhibition is an EC50; but the minimum plasma concentrations which should be maintained in a patient is generally believed to be at least four or five fold higher. […] Lower is better. • 4) Estimating potential exposure in man by measuring parameters such as AUC and rate of clearance by oral and iv dosing in rats. High exposure and low clearance was desired.

[3] = Metabolic stability in pooled human liver microsomes (HLM); settings: pooled human liver microsomes, 3 μM drug; Low/Intermediate/High
Procedure: Metabolic Stability Studies of compounds in Liver Microsomes. The metabolic stability of compounds were investigated in pooled liver microsomes from humans. The human liver microsomes were obtained from BD Gentest (Lot #16, Woburn, Mass.) with a protein concentration of 20 mg/ml and a total cytochrome P450 (CYP) concentration of 0.55 nmol/mg protein. A stock solution of drug was prepared in acetonitrile at 1 mM. […] The incubation media consisted of potassium phosphate buffer (0.1 M, pH 7.4), liver microsomes (final concentration 0.9 mg/ml), magnesium chloride (0.033 mM), and a NADPH-regenerating system. […] The test compound was pre-incubated in the media for 2 min. The reaction was initiated by the addition of the cofactors. The incubation was carried out at 37° C. for 10 min. The reaction was terminated by drawing an aliquot of 100 μL from the incubation and adding into 200 μL of acetonitrile containing a reference compound as an […] analytical standard. Following vortex-mixing and centrifugation, an aliquot of 10 μL of the supernatant was analyzed by LC/MS.
GUIDELINES can be used to categorized test substances as low, intermediate or highly cleared compounds.
as §1
The stability of compounds were also evaluated to determine metabolic stability when incubated in in vitro preparations of human liver microsomes (HLM). This is one commonly used predictive system for evaluating the potential for human metabolism and projecting clearance rates in man. Compounds with low clearance rates were most desireable.

[4] = Human immunodeficiency virus 1, HeLa-CD4/CCR5, read-out: EC50 Group from Table 1, Table 4, HeLa CD4 CCR5 cells, single-round luciferase reporter virus
[5] = Human immunodeficiency virus 1, HeLa-CD4/CCR5, read-out: EC50 category, HIV-1 single-round reporter virus assay, category 1/2/3 per Table A1 key
[6] = cytotoxicity, Yes = CC50 above 100 uM, No = not
[7] = Human immunodeficiency virus 1, HeLa-CD4/CCR5, read-out: EC50 Group from TABLE 1, HeLa CD4 CCR5 cells, single-round infectious luciferase reporter virus
[8] = Human immunodeficiency virus 1, HeLa-CD4/CCR5, read-out: EC50 category, initial pseudotype assay, key in Table A1
[9] = HeLa cells, six days with drug, MTT

SMILES | EC50 [1, 4] | EC50 [1, 5] | CC50 > 100 uM [2, 6] | EC50 [1, 7] | HLM predicted human clearance class [3] | EC50 ([1]; Human immunodeficiency virus 1, HeLa-CD4/CCR5, read-out: EC50 Group from Table 1, Table 2-1, HeLa CD4 CCR5 cells, single-round luciferase reporter virus) | EC50 [1, 8] | CC50 > 100 uM [2, 9]
O=C(C(=O)N1CCN(C(=O)c2ccccc2)CC1)c1c[nH]c2c(-n3cccn3)ccnc12 [Example 208, 1-(4-Benzoyl-piperazin-1-yl)-2-(7-pyrazol-1-yl-1H-pyrrolo[3,2-b]pyridin-3-yl)-ethane-1,2-dione] | < 1000 nM | 0.2 to 1000 nM | Yes |  |  |  |  | 
O=C(C(=O)N1CCN(C(=O)c2ccccc2)CC1)c1c[nH]c2c(-n3ccnn3)ccnc12 [Example 206, 1-(4-benzoyl-piperazin-1-yl)-2-(7-[1,2,3]triazol-1-yl-1H-pyrrolo[3,2-b]pyridin-3-yl)-ethane-1,2-dione] | < 1000 nM | 0.2 to 1000 nM | Yes |  |  |  |  | 
CNC(=O)c1cc(-c2ncc(F)c3c(C(=O)C(=O)N4CCN(C(=O)c5ccccc5)CC4)c[nH]c23)n[nH]1 [Example 211] |  | < 0.2 nM |  | < 1000 nM | Intermediate (0.101-0.200) |  |  | 
COc1cnc(-n2cc(C)nn2)c2[nH]cc(C(=O)C(=O)N3CCN(C(=O)c4ccccc4)CC3)c12 [Example 325] |  | < 0.2 nM | Yes | < 1000 nM | Low (0-0.100) |  |  | 
O=C(C(=O)N1CCN(C(=O)c2ccccc2)CC1)c1c[nH]c2c(-c3cnc[nH]3)ncc(F)c12 [Example 148] |  | 0.2 to 1000 nM | Yes | < 1000 nM |  |  |  | 
COc1cnc(-c2cccn2C)c2[nH]cc(C(=O)C(=O)N3CCN(C(=O)c4ccccc4)CC3)c12 [Example 28, 1-benzoyl-4-[(4-methoxy-7-(11-methyl-pyrrol-2-yl)-6-azaindol-3-yl)oxoacetyl]piperazine] |  | > 1000 nM | No | < 1000 nM |  |  |  | 
COc1cnc(-n2nccn2)c2[nH]cc(C(=O)C(=O)N3CCN(C(=O)c4ccccc4)[C@H](C)C3)c12 [Example 256, (R)-1-benzoyl-2-methyl-4-[(4-methoxy-7-(1,2,3-triazol-2-yl)-6-azaindol-3-yl)-oxoacetyl]piperazine] |  |  |  |  |  | < 1000 nM | 0.2 to 1000 nM | Yes
O=C(C(=O)N1CCN(C(=O)c2ccccc2)CC1)c1c[nH]c2c(-c3cnccn3)ncc(F)c12 [Example 95, 1-benzoyl-4-[(4-fluoro-7-(pyrazin-2-yl)-6-azaindol-3-yl)-oxoacetyl]piperazine] |  | < 0.2 nM |  | < 1000 nM | Intermediate (0.101-0.200) |  |  | 
Cn1ncnc1-c1ncc(F)c2c(C(=O)C(=O)N3CCN(C(=O)c4ccccc4)CC3)c[nH]c12 [Example 301] |  | 0.2 to 1000 nM | Yes | < 1000 nM |  |  |  | 
COc1cnc(-c2cncnc2)c2[nH]cc(C(=O)C(=O)N3CCN(C(=O)c4ccccc4)CC3)c12 [Example 40, 1-benzoyl-4-[(4-methoxy-7-(pyfimidin-5-yl)-6-azaindol-3-yl)-oxoacetyl]piperazine] |  | 0.2 to 1000 nM | No | < 1000 nM |  |  |  | 
CNC(=O)c1ccn(-c2ncc(OC)c3c(C(=O)C(=O)N4CCN(C(=O)c5ccccc5)CC4)c[nH]c23)n1 [Example 276, 1-benzoyl-4-[(4-methoxy-7-(3-methylaminocarbonyl-pyrazol-1-yl)-6-azaindol-3-yl)-oxoacetyl]piperazine] |  | < 0.2 nM | Yes | < 1000 nM |  |  |  | 
C[C@@H]1CN(C(=O)c2ccccc2)CCN1C(=O)C(=O)c1c[nH]c2c(-c3nccs3)ncc(F)c12 [Example 37, 1-benzoyl-3-(R)-methyl-4-[(4-fluoro-7-(thiazol-2-yl)-6-azaindol-3-yl)-oxoacetyl]piperazine] |  | < 0.2 nM | No | < 1000 nM |  |  |  | 
COc1cnc(-n2cc(C)cn2)c2[nH]cc(C(=O)C(=O)N3CCN(C(=O)c4ccccc4)CC3)c12 [Example 191, 1-benzoyl-4-[(4-methoxy-7-(4-methylpyrazol-1-yl)-6-azaindol-3-yl)-oxoacetyl]piperazine] |  | 0.2 to 1000 nM | Yes | < 1000 nM |  |  |  | 
O=C(C(=O)N1CCN(C(=O)c2ccccc2)CC1)c1c[nH]c2c(-c3cc[nH]n3)ncc(F)c12 [Example 38, 1-benzoyl-4-[(4-fluoro-7-(pyrazol-3-yl)-6-azaindol-3-yl)-oxoacetyl]piperazine] |  | < 0.2 nM |  | < 1000 nM | Low (0-0.100) |  |  | 
COc1cnc(-c2ccn(C)n2)c2[nH]cc(C(=O)C(=O)N3CCN(C(=O)c4ccccc4)CC3)c12 [Example 22, 1-benzoyl-4-[(4-methoxy-7-(1-methyl-pyrazol-3-yl)-6-azaindol-3-yl)-oxoacetyl]piperazine] |  | < 0.2 nM | No | < 1000 nM |  |  |  | 
COc1cnc(-n2cccn2)c2[nH]cc(C(=O)C(=O)N3CCN(C(=O)c4ccccc4)CC3)c12 [Example 189, 1-benzoyl-4-[(4-methoxy-7-(1-pyrazolyl)-6-azaindol-3-yl)-oxoacetyl]piperazine] |  | 0.2 to 1000 nM | Yes | < 1000 nM |  |  |  | 
O=C(C(=O)N1CCN(C(=O)c2ccccc2)CC1)c1c[nH]c2c(-n3nccn3)ncc(F)c12 [Example 217] |  |  |  | < 1000 nM |  |  | 0.2 to 1000 nM | Yes
CNC(=O)c1ccc(-c2ncc(OC)c3c(C(=O)C(=O)N4CCN(C(=O)c5ccccc5)CC4)c[nH]c23)o1 [Example 94, 1-benzoyl-4-[(4-methoxy-7-(2-methylaminocarbonyl-furan-5-yl)-6-azaindol-3-yl)-oxoacetyl]piperazine] |  | < 0.2 nM | Yes | < 1000 nM |  |  |  | 
O=C(C(=O)N1CCN(C(=O)c2ccccc2)CC1)c1c[nH]c2c(-n3cccc3)ncc(F)c12 [Example 220] |  | 0.2 to 1000 nM | Yes | < 1000 nM |  |  |  | 
CN(C)C(=O)c1cc(-c2ncc(F)c3c(C(=O)C(=O)N4CCN(C(=O)c5ccccc5)CC4)c[nH]c23)n[nH]1 [Example 212] |  | < 0.2 nM |  | < 1000 nM | Low (0-0.100) |  |  | 
COc1ncc(-c2ncc(OC)c3c(C(=O)C(=O)N4CCN(C(=O)c5ccccc5)CC4)c[nH]c23)c(OC)n1 [Example 13, 1-benzoyl-4-[(4-methoxy-7-(2,4-dimethoxy-pyrimidin-5-yl)-6-azaindol-3-yl)-oxoacetyl]piperazine] |  | 0.2 to 1000 nM | Yes | < 1000 nM |  |  |  | 
